Tested on: human breast cancer BT474 cells
Method: Test sample diluent: a proper amount of PEG300 and absolute alcohol was taken, and sodium chloride injection was added to make that the content of PEG300 and absolute alcohol was 20% (v/v).
Test samples: 41-32, 41-40 and 39-55 were respectively taken in a proper volume, and a proper amount of each of the test sample diluent was added, to respectively prepare solutions with the concentrations of 8.3 mg/mL, 4.6 mg/mL and 5.5 mg/mL.
An estrogen sustained-release tablet (17 beta-ESTRADIOL, product No.: SE-121, Innovative Research of America) was embedded under the skin at the neck back of NPG mice before cell inoculation. A BT474 cell suspension with the concentration of 7.5×10^7/mL and a Matrigel Basement membrane Matrix (BD Co.) were mixed according to the volume ratio of 1:1 to obtain a cell suspension with the concentration of 3.75×10^7/mL. 0.2 mL of the cell suspension was inoculated into the right mammary fat pad of the mice. The tumor growth was observed after inoculation, and 36 tumorigenic animals with the tumor volume of 66.83-324.35 mm^3 were finally screened and used for the test.
The negative control, SB7, 41-32, 41-40 and 39-55 were intravenously injected; LPT was intragastrically administered.

[1] = end of experiment (D29), doses as in E38

CS(=O)(=O)CCNCc1ccc(-c2ccc3ncnc(Nc4ccc(OCc5cccc(F)c5)c(Cl)c4)c3c2)o1 [LPT, Lapatinib]
animals died during the experiment (6 animals per group, LPT 20 mg/kg i.g. (D19), SB7+LPT 5+5.6 mg/kg (D15, D25)): 1
average tumor weight (after euthanasia (D29), doses as in E38): 1.226 ± 0.370 g
inhibition effect on tumor growth (conclusion) (doses as in E38): certain inhibition effects
average tumor volume (end of experiment (D29), LPT 20 mg/kg i.g. and 41-32 83 mg/kg i.v. every 3 days, SB7+LPT 5+5.6 mg/kg, 41-40 46 mg/kg i.v., 39-55 55 mg/kg i.v. one time/week, 4 weeks): 1313.80±241.46 mm^3
average RTV (relative tumor volume) [1]: 8.13±2.92
relative tumor proliferation rate T/C % [1]: 54.27%
tumor weight inhibition rate IRTW % (from tumor weights after euthanasia (D29), b1725, doses as in E38): 32.15%

From patent publication US11793881B2, “Polyethylene glycol conjugate medicament, preparation method therefor and use thereof” (CHONGQING UPGRA BIOTECHNOLOGY CO., LTD., priority 2019, dated 2023)
